The source of these data is US9206161B2, “Bridged bicyclic heteroaryl substituted triazoles useful as Axl inhibitors” (Rigel Pharmaceuticals, Inc., priority 2008, dated 2015).

A value given as a limit tells only on which side of the number the result lay.

For the first assay, the target named is T1, Axl (Homo sapiens, UniProt P30530).
T1 construct: endogenous in cells; host or cells: HeLa cells
T1 sequence (P30530 26-894): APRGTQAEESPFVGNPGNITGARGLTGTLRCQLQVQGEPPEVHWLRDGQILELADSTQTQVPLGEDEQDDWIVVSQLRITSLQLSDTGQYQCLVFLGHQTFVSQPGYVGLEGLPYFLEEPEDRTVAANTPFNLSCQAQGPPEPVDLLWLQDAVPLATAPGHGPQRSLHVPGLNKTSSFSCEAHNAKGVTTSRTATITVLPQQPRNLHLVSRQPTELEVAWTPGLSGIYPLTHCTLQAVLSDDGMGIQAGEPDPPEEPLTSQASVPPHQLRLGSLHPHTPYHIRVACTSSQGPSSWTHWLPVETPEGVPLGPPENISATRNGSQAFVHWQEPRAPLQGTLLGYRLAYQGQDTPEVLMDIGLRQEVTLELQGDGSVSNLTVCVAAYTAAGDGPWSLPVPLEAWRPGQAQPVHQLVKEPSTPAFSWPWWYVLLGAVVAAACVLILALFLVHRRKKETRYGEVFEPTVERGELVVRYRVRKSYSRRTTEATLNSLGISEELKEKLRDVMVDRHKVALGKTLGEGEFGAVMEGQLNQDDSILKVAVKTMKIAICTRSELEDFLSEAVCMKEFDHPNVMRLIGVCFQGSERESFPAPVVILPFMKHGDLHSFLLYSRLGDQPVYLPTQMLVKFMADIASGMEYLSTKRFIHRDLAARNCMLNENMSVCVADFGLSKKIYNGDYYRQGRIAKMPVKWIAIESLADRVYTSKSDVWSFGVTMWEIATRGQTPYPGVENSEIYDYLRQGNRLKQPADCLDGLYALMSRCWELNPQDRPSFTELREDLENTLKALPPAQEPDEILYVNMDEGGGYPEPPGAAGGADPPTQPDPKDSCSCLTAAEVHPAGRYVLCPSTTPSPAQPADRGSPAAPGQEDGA
Description: Phospho-Akt in-cell Western assay. Type of assay: cell-based. Particulars: Table 4, formula (III); Hela cells, Axl antibody cross-linking stimulation, phospho-Akt readout. The procedure: Phospho-Akt in-Cell Western Assay
The compounds of the invention were tested in the following assay for their ability to inhibit Axl activity.
• Cell culture plate: 96 well assay plate (Corning 3610), white, clear bottom, tissue-culture treated. • Cells: Hela cells. • Starvation medium: For Axl stimulation: 0.5% FCS (fetal calf serum) in DMEM, plus Axl/Fc (extracellular domain of AXL fused to immunoglobulin Fc region) (R&D, 154-AL) 500 ng/mL. • For EGF (epidermal growth factor) stimulation: 0.5% FCS in DMEM (Dulbecco's modified Eagles medium). • Poly-L-Lysine 0.01% solution (the working solution): 10 μg/ml, dilute In PBS (phosphate buffered saline). • Axl antibody cross-linking: • 1st: Mouse anti-Axl (R&D, MAB154). • 2nd: Biotin-SP-conjugated AffiniPure goat anti-mouse IgG (H+L) (Jackson ImmunoResearch #115-065-003). • Fixing buffer: 4% formaldehyde in PBS. • Wash buffer: 0.1% TritonX-100 in PBS. • Quenching buffer: 3% H2O2, 0.1% Azide in wash buffer, Azide and hydrogen peroxide (H2O2) are added fresh. • Blocking buffer: 5% BSA in TBST (tris buffered saline plus 0.1% Tween 20). • Primary antibody: Rabbit anti-human Phospho-Akt antibody (Cell Signaling 9271): 1×250 diluted in blocking buffer. • Secondary antibody: HRP (horse radish peroxidase)-conjugated Goat anti-Rabbit secondary, stock solution: Jackson ImmunoResearch (Goat anti-Rabbit HRP, #111-035-144) 1:1 diluted in glycerol, store at −20° C. The working solution: 1×2000 dilution of stock in blocking buffer. • Chemiluminescent working solution (Pierce, 37030): SuperSignal ELISA (enzyme linked immunosorbant assay) Pico Chemiluminescent substrate. • Crystal Violet solution: Stock: 2.5% Crystal violet in methanol, filtered and kept at ambient temperature. The working solution: dilute the stock 1:20 with PBS immediately before use. • 10% SDS: working solution: 5% SDS (sodium dodecylsulfate), diluted in PBS Methods: Day 1:
A 96 well TC (tissue culture treated) plate was coated with 10 μg/mL poly-L-Lysine at 37° C. for 30 min, washed twice with PBS, and air-dried for 5 minutes before cells were added. Hela cells were seeded at 10,000 cells/well and the cells were starved in 100 μL starvation medium containing Axl/Fc for 24 hrs.
The cells were pre-treated with test compounds by adding 100 μL of 2× test compound to the starvation medium on the cells. The cells were incubated at 37° C. for 1 hr before stimulation.
The cells were stimulated by Axl-antibody cross-linking as follows: A 5×1st/2nd Axl antibody mixture was made (37.5 μg/mL 1st/100 μg/mL 2nd) in starvation medium and nutated at 4° C. with thorough mixing for 1-2 hours for clustering. The resulting mix was warmed to 37° C. 50 μL of 5× Axl 1st/2nd of antibody cluster was added to the cells and the cells were incubated at 37° C. for 5 min.
After 5 minutes stimulation, the plate was flicked to remove medium and the plate was tapped onto paper towels. Formaldehyde (4.0% in PBS, 100 μL) was added to fix the cells and the cells were incubated at ambient temperature for 20 min without shaking.
The cells were washed with a plate washer buffer to remove the formaldehyde solution. The plate was flicked to removed excess wash buffer and tapped onto paper towels. Quenching buffer (100 μL) was added to each well and the cells were incubated at ambient temperature for 20 minutes without shaking.
The cells were washed with a plate washer buffer to remove the quenching buffer. Blocking buffer (100 μL) was added and the cells were incubated at ambient temperature for at least an hour with gentle shaking.
The cells were washed with a plate washer buffer and diluted primary antibody (50 μL) was added to each well (blocking buffer was added to the negative control wells instead). The plates were incubated overnight at 4° C. with gentle shaking.
The wash buffer was removed, diluted secondary antibody (100 μL) was added, and the cells were incubated at ambient temperature for 1 hour with gentle shaking. […]
In turn, `CCN(CC)[C@H]1CCc2ccc(Nc3nc(N)n(-c4cc(-c5ccccc5)c5c(n4)C4CCN5CC4)n3)cc2CC1` [Compound 35, (7S)-1-(1,4-ethano-8-phenyl-1,2,3,4-tetrahydro-1,5-naphthyridin-6-yl)-N^3-(7-(diethylamino)-6,7,8,9-tetrahydro-5H-benzo[7]annulene-2-yl)-1H-1,2,4-triazole-3,5-diamine] showed an IC50 below 1000 nM.
Same read-out and setting: next, `CN(C)[C@H]1CCc2ccc(Nc3nc(N)n(-c4cc(-c5ccccc5)c5c(n4)C4CCN5CC4)n3)cc2CC1` [Compound 36, (7S)-1-(1,4-ethano-8-phenyl-1,2,3,4-tetrahydro-1,5-naphthyridin-6-yl)-N^3-(7-(dimethylamino)-6,7,8,9-tetrahydro-5H-benzo[7]annulene-2-yl)-1H-1,2,4-triazole-3,5-diamine]: above 20000 nM; `CC(C)N[C@H]1CCc2ccc(Nc3nc(N)n(-c4cc(-c5ccccc5)c5c(n4)C4CCN5CC4)n3)cc2CC1` [Compound 37, (7S)-1-(1,4-ethano-8-phenyl-1,2,3,4-tetrahydro-1,5-naphthyridin-6-yl)-N^3-(7-(isopropylamino)-6,7,8,9-tetrahydro-5H-benzo[7]annulene-2-yl)-1H-1,2,4-triazole-3,5-diamine]: below 1000 nM; `Nc1nc(Nc2ccc3c(c2)CC[C@@H](NC2CCC2)CC3)nn1-c1cc(-c2ccccc2)c2c(n1)C1CCN2CC1` [Compound 38, (7S)-1-(1,4-ethano-8-phenyl-1,2,3,4-tetrahydro-1,5-naphthyridin-6-yl)-N^3-(7-(cyclobutylamino)-6,7,8,9-tetrahydro-5H-benzo[7]annulene-2-yl)-1H-1,2,4-triazole-3,5-diamine]: below 1000 nM.
The same measure, in the same setting: under `CCCN(CCC)[C@H]1CCc2ccc(Nc3nc(N)n(-c4cc(-c5ccccc5)c5c(n4)C4CCN5CC4)n3)cc2CC1` [Compound 39, (7S)-1-(1,4-ethano-8-phenyl-1,2,3,4-tetrahydro-1,5-naphthyridin-6-yl)-N^3-(7-(dipropylamino)-6,7,8,9-tetrahydro-5H-benzo[7]annulene-2-yl)-1H-1,2,4-triazole-3,5-diamine] stands below 1000 nM.
Same read-out and setting: next, `CC(C)CN[C@H]1CCc2ccc(Nc3nc(N)n(-c4cc(-c5ccccc5)c5c(n4)C4CCN5CC4)n3)cc2CC1` [Compound 40, (7S)-1-(1,4-ethano-8-phenyl-1,2,3,4-tetrahydro-1,5-naphthyridin-6-yl)-N^3-(7-(isobutylamino)-6,7,8,9-tetrahydro-5H-benzo[7]annulene-2-yl)-1H-1,2,4-triazole-3,5-diamine]: below 1000 nM.
`CC(C)CN(CC(C)C)[C@H]1CCc2ccc(Nc3nc(N)n(-c4cc(-c5ccccc5)c5c(n4)C4CCN5CC4)n3)cc2CC1` [Compound 41, (7S)-1-(1,4-ethano-8-phenyl-1,2,3,4-tetrahydro-1,5-naphthyridin-6-yl)-N^3-(7-(diisobutylamino)-6,7,8,9-tetrahydro-5H-benzo[7]annulene-2-yl)-1H-1,2,4-triazole-3,5-diamine] returned a half-maximal inhibitory concentration (IC50) below 1000 nM.

The assay is the same for the next values; noted with them: Table 8, formula (VI); Hela cells, Axl antibody cross-linking stimulation, phospho-Akt readout.
Compound `N#Cc1cccc(-c2nnc(-n3nc(Nc4ccc5c(c4)CCC(N4CCCC4)CC5)nc3N)c3c2C2CCC3CC2)c1` (stereo not shown) [Compound 31, 1-(4-(3-cyanophenyl)-5,8-ethano-5,6,7,8-tetrahydrophthalazine-1-yl)-N^3-(7-(pyrrolidin-1-yl)-6,7,8,9-tetrahydro-5H-benzo[7]annulene-2-yl)-1H-1,2,4-triazole-3,5-diamine] returned an IC50 below 1000 nM.
On the same count and under the same terms, under `CCOc1ccc(C)cc1-c1nnc(-n2nc(Nc3ccc4c(c3)CCC(N3CCCC3)CC4)nc2N)c2c1C1CCC2CC1` (stereo not shown) [Compound 32, 1-(4-(2-ethoxy-5-methylphenyl)-5,8-ethano-5,6,7,8-tetrahydrophthalazine-1-yl)-N^3-(7-(pyrrolidin-1-yl)-6,7,8,9-tetrahydro-5H-benzo[7]annulene-2-yl)-1H-1,2,4-triazole-3,5-diamine] stands 1000 to 10000 nM.
The same measure, in the same setting: under `Cc1cc(F)ccc1-c1nnc(-n2nc(Nc3ccc4c(c3)CCC(N3CCCC3)CC4)nc2N)c2c1C1CCC2CC1` (stereo not shown) [Compound 33, 1-(4-(4-fluoro-2-methylphenyl)-5,8-ethano-5,6,7,8-tetrahydrophthalazine-1-yl)-N^3-(7-(pyrrolidin-1-yl)-6,7,8,9-tetrahydro-5H-benzo[7]annulene-2-yl)-1H-1,2,4-triazole-3,5-diamine] stands below 1000 nM; under `Nc1nc(Nc2ccc3c(c2)CCC(N2CCCC2)CC3)nn1-c1nnc(-c2ccncc2)c2c1C1CCC2CC1` (stereo not shown) [Compound 34, 1-(4-(pyridin-4-yl)-5,8-ethano-5,6,7,8-tetrahydrophthalazine-1-yl)-N^3-(7-(pyrrolidin-1-yl)-6,7,8,9-tetrahydro-5H-benzo[7]annulene-2-yl)-1H-1,2,4-triazole-3,5-diamine], below 1000 nM.

Still in this assay, the particulars now being: Table 9, formula (VII); Hela cells, Axl antibody cross-linking stimulation, phospho-Akt readout.
The compound `Nc1nc(Nc2ccc(N3CCC(N4CCCC4)CC3)c(F)c2)nn1-c1nc2c(c(-c3ccccc3)n1)CCCC2` [Compound 42, 1-(4-phenyl-5,6,7,8-tetrahydroquinazoline-2-yl)-N^3-(4-(4-(pyrrolidin-1-yl)piperidinyl)-3-fluorophenyl)-1H-1,2,4-triazole-3,5-diamine] registered an IC50 below 1000 nM.
Same read-out and setting: under `Nc1nc(Nc2ccc(N3CCC(N4CCCC4)CC3)c(F)c2)nn1-c1nc(-c2ccccc2)c2c(n1)C1CCN2CC1` [Compound 43, 1-(5,8-ethano-4-phenyl-5,6,7,8-tetrahydropyrido[3,2-d]pyrimidin-2-yl)-N^3-(4-(4-(pyrrolidin-1-yl)piperidinyl)-3-fluorophenyl)-1H-1,2,4-triazole-3,5-diamine] stands below 1000 nM.

What is called IC50 is the concentration needed to halve the response being measured.
